Results: patent publication US4485109A, “4-Aryl-4-piperidinecarbinols” (E. I. Du Pont de Nemours and Company, priority 1983, dated 1984)
Read-outs that look alike come from different tables or passages of the source.

Assays:
[1] = tested on: tetrabenazine-induced depression; test: Antagonism (prevention) of tetrabenazine-induced sedation and depression in mice, orally; format: in vivo, mice (Carworth CF1 S female); details: tetrabenazine 32 mg/kg i.p. 30 min after compound; for ED50: Mus musculus, po, 1 h
Source text: A standard procedure for detecting and comparing the antidepressant activity of the compounds of this invention, for which there is good correlation with human efficacy, is the prevention of tetrabenazine-induced sedation and depression in mice. (Everett, "The Dopa Response Potentiation Test and Its Use in Screening for Antidepressant Drugs", pp. 164-167 in Antidepressant Drugs [Proceedings of the First International Symposium], S. Garattini and M. N. G. Dukes (editors), 1967).
Groups of 10 Carworth CF1 S female mice, 18-21 g each, each fasted 1.5 h and were intubated with antagonist compounds at oral doses, such as 0, 1, 3, 9, 27 and 81 mg/kg in 0.20 mL of 1% Methocel® (methylcellulose).The mice were challenged 30 minutes later with tetrabenazine (as the methanesulfonate), 32 mg/kg intraperitoneally (dissolved in 0.20 mL 0.05% aqueous KCl at pH 2.0). One hour after administration of antagonist (30 minutes after administration of tetrabenazine) the mice were examined for signs of exploratory activity and ptosis (eye lid closure). Normal exploratory activity (relief from sedation) was recorded when a mouse, lifted by the tail from a group of 10 in a testing box and placed on a stainless steel testing box lid (12.5 inch (31.8 cm) by 8 inch (20.3 cm) with 0.33 inch mesh), either turned its head horizontally 30° in both directions or moved to the edge of the screen within 10 seconds after being placed on the screen. Relief from ptosis was recorded when, at exactly two seconds after placing the mouse facing the observer, lid closure was less than 50% in both eyes.

[2] = Anorexia test from CNS screen (milk consumption in fasted mice); format: in vivo; details: fasted female mice, 0.5 h after dosing, 30 min milk access, ED50 estimated from quantal responses; for ED50: Mus musculus, po, 0.5 h
Procedure: Female mice weighing 16-20 grams and fasted overnight for 17-21 h are used in these studies. At 0.5 h after administration of graded oral doses of compound prepared in aqueous Methocel® (methylcellulose, viscosity 100 CPS, grade MC, Dow Chemical Co.) and 2.8% Tween 80 and dosed at 0.1 mL per 10 grams of body weight, each mouse is transferred to an individual, clear, Lucite® compartment (13.3 cm×12.7 cm×12.7 cm) with a 0.64 cm×0.64 cm wire mesh floor. Five compartments are linearly arranged in each cage unit. Inside each compartment is a section of a black Lucite® bar (13 cm×1.2 cm×1.2 cm), in the top of which are ten spot depressions (0.8 cm diameter), each containing 0.05 mL of 50% sweetened condensed milk (Borden's Eagle Brand). 30 Minutes later the mice are returned to the "shoe-box" containers and the number of milk spots consumed by each mouse is counted. Fractions of spots consumed are also estimated and counted. Five mice […] per drug dose can drink a maximum of 50 spots (2.5 mL of milk). Nine or fewer spots consumed by 5 mice is considered to indicate anorexia. ED50 values are estimated based on the quantal responses obtained.

[3] = tested on: tetrabenazine-induced depression; test: Antagonism (prevention) of tetrabenazine-induced sedation and depression in mice, orally; format: in vivo, mice (Carworth CF1 S female); details: Mus musculus, po, footnote *: peak time values
[4] = read-out: ORAL ED50 for prevention of exploratory loss, mice, oral, at one hour post-drug
[5] = read-out: ORAL ED50 for prevention of ptosis, mice, oral, at one hour post-drug
[6] = mice, oral, at one hour post-drug, 60 min

SMILES	ED50 [1, 4]	ED50 [1, 5]	ED50 [2]	also measured
CN1CCC(c2cccc(C(F)(F)F)c2)(C(C)(C)O)CC1 [Example 2, 4-(3'-Trifluoromethylphenyl)-α,α,1-trimethyl-4-piperidinemethanol]	0.01 mg/kg	0.016 mg/kg	60 mg/kg	–
CN1CCC(c2cccc(C(F)(F)F)c2)(C(C)(C)O)CC1 [Example 2A, 4-(3'-Trifluoromethylphenyl)-α,α,1-trimethyl-4-piperidinemethanol]	–	–	–	ORAL ED50 for prevention of exploratory loss [1, 6]: 0.01 mg/kg; ORAL ED50 for prevention of ptosis [1, 6]: 0.014 mg/kg; ED50 for anorexia ([2]; oral): 36 mg/kg
CN1CCC(c2cccc(F)c2)(C(C)(C)O)CC1 [Example 4, 4-(3'-Fluorophenyl)-α,α,1-trimethyl-4-piperidinemethanol]	0.2 mg/kg	0.12 mg/kg	60 mg/kg	–
CN1CCC(c2cccc(Cl)c2)(C(C)(C)O)CC1 [Example 6, 4-(3'-Chlorophenyl)-α,α,1-trimethyl-4-piperidinemethanol]	0.04 mg/kg	0.03 mg/kg	60 mg/kg	–
CN1CCC(c2ccc(Cl)cc2)(C(C)(C)O)CC1 [Example 7, 4-(4'-Chlorophenyl)-α,α,1-trimethyl-4-piperidinemethanol]	0.57 mg/kg	0.33 mg/kg	20 mg/kg	–
CCC(O)(CC)C1(c2cccc(Cl)c2)CCN(C)CC1 [Example 8, 4-(3'-Chlorophenyl)-α,α-diethyl-1-methyl-4-piperidinemethanol]	0.29 mg/kg	0.26 mg/kg	20 mg/kg	–
Cc1cccc(C2(C(C)(C)O)CCN(C)CC2)c1 [Example 10, 4-(3'-Tolyl)-α,α,1-trimethyl-4-piperidinemethanol]	0.04 mg/kg	0.04 mg/kg	20 mg/kg	–
COc1cccc(C2(C(C)(C)O)CCN(C)CC2)c1 [Example 16, 4-(3'-Methoxyphenyl)-α,α,1-trimethyl-4-piperidinemethanol]	–	–	60 mg/kg	ED50 ([3]; read-out: ORAL ED50 for prevention of exploratory loss (peak time value), mice, oral): 0.12 mg/kg; ED50 ([3]; read-out: ORAL ED50 for prevention of ptosis (peak time value), mice, oral): 0.077 mg/kg
CCC(C)(O)C1(c2cccc(OC)c2)CCN(C)CC1 (stereo not drawn) [Example 17, 4-(3'-Methoxyphenyl)-α,1-dimethyl-α-ethyl-4-piperidinemethanol]	0.1 mg/kg	0.11 mg/kg	60 mg/kg	–
Cc1ccc(C2(C(C)(C)O)CCN(C)CC2)s1 [Example 25, 4-(5'-Methyl-2'-thienyl)-α,α,1-trimethyl-4-piperidinemethanol]	0.99 mg/kg	0.69 mg/kg	–	–
CN1CCC(c2cccnc2)(C(C)(C)O)CC1 [Example 26, 4-(3'-Pyridyl)-α,α,1-trimethyl-4-piperidinemethanol]	29 mg/kg	18 mg/kg	–	–
COc1cccc(C2(C3(O)CCCCCC3)CCN(C)CC2)c1 [Example 27, 1-[1'-Methyl-4'-(3"-methoxyphenyl)-4'-piperidinyl]cycloheptanol]	1.4 mg/kg	0.9 mg/kg	–	–
COc1cccc(C2(C3(O)CCCCCCC3)CCN(C)CC2)c1 [Example 28, 1-[1'-Methyl-4'-(3"-methoxyphenyl)-4'-piperidinyl]cyclooctanol]	3.8 mg/kg	1.7 mg/kg	–	–
COc1ccc(OC)c(C2(C(C)(C)O)CCN(C)CC2)c1 [Example 29, 4-(2',5'-Dimethoxyphenyl)-α,α,1-trimethyl-4-piperidinemethanol]	0.99 mg/kg	0.86 mg/kg	–	–
CN1CCC(c2cccc(C(F)(F)F)c2)(C2(O)CCCC2)CC1 [Example 30, 1-[1'-Methyl-4'-(3"-trifluoromethylphenyl)-4'-piperidinyl]cyclopentanol]	0.17 mg/kg	0.084 mg/kg	60 mg/kg	–
CCC(C)(O)C1(c2cccc(C(F)(F)F)c2)CCN(C)CC1 (stereo not drawn) [Example 31, 4-(3'-Trifluoromethylphenyl)-α,1-dimethyl-α-ethyl-4-piperidinemethanol]	0.064 mg/kg	0.056 mg/kg	20 mg/kg	–

SMILES	ED50 [1, 4]	ED50 [1, 5]	ED50 [2]	also measured
CN1CCC(c2ccc(Oc3ccccc3)cc2)(C(C)(C)O)CC1 [Example 32, 4-(4'-Phenoxyphenyl)-α,α,1-trimethyl-4-piperidinemethanol]	> 81 mg/kg	81 mg/kg	60 mg/kg	–
CN1CCC(c2ccc(N(C)C)cc2)(C(C)(C)O)CC1 [Example 33, 4-(4'-Dimethylaminophenyl)-α,α,1-trimethyl-4-piperidinemethanol]	0.78 mg/kg	0.35 mg/kg	–	–
COc1cccc(C2(C3(O)CCCC3)CCN(C)CC2)c1 [Example 34, 1[1'-Methyl-4'-(3"-methoxyphenyl)-4'-piperidine]cyclopentanol]	0.48 mg/kg	0.45 mg/kg	–	–
COc1cccc(C2(C3(O)CCCCC3)CCN(C)CC2)c1 [Example 35, 1[1'-Methyl-4'-(3"-methoxyphenyl)-4'-piperidine]cyclohexanol]	1.4 mg/kg	1.1 mg/kg	–	–
CN1CCC(c2cccc(-c3ccccc3)c2)(C(C)(C)O)CC1 [Example 36, 4-(3'-Biphenylyl)-α,α,1-trimethyl-4-piperidinemethanol]	1.1 mg/kg	0.66 mg/kg	–	–
COc1cccc(C2(C(C)(C)O)CCN(Cc3ccccc3)CC2)c1OC [Example 37, 4-(2',3'-Dimethoxyphenyl)-1-benzyl-α,α-dimethyl-4-piperidinemethanol]	> 81 mg/kg	81 mg/kg	60 mg/kg	–
COc1cccc(C2(C3(O)CCCC3)CCN(Cc3ccccc3)CC2)c1OC [Example 38, 1-[1'-Benzyl-4'-(2",3"-dimethoxyphenyl)-4'-piperidinyl]cyclopentanol]	> 81 mg/kg	> 81 mg/kg	–	–
COc1ccc2cc(C3(C(C)(C)O)CCN(C)CC3)ccc2c1 [Example 39, 4-(6'-Methoxy-2'-naphthyl)-α,α,1-trimethyl-4-piperidinemethanol]	0.33 mg/kg	< 0.33 mg/kg	60 mg/kg	–
CCOc1cccc(C2(C(C)(C)O)CCN(C)CC2)c1 [Example 40, 4-(3'-Ethoxyphenyl)-α,α,1-trimethyl-4-piperidinemethanol]	0.9 mg/kg	0.9 mg/kg	–	–
CCN1CCC(c2cccc(C(F)(F)F)c2)(C(C)(C)O)CC1 [Example 41, 4-(3'-Trifluoromethylphenyl)-α,α-dimethyl-1-ethyl-4-piperidinemethanol]	0.73 mg/kg	0.46 mg/kg	60 mg/kg	–
CN1CCC(c2ccc(-c3ccccc3)cc2)(C(C)(C)O)CC1 [Example 42, 4-(4'-Biphenylyl)-α,α,1-trimethyl-4-piperidinemethanol]	1.5 mg/kg	1 mg/kg	–	–
COc1cccc(C2(C(C)(C)O)CCN(C)CC2C)c1 (stereo not drawn) [Example 43, 4-(3'-Methoxyphenyl)-α,α,1,3-tetramethyl-4-piperidinemethanol]	7.2 mg/kg	5.8 mg/kg	–	–
Cc1cccc(C2(C(C)(C)O)CCN(C)C(C)C2)c1 (stereo not drawn) [Example 44, 4-(3'-Tolyl)-α,α,1,2-tetramethyl-4-piperidinemethanol]	0.33 mg/kg	0.33 mg/kg	–	–
CC(C)(O)C1(c2cccc(C(F)(F)F)c2)CCN2CCCC2C1 (stereo not drawn) [Example 45, 7-(3'-Trifluoromethylphenyl)-α,α-dimethyl-7-indolizidinemethano]	< 0.33 mg/kg	0.48 mg/kg	–	–
CN(C)CCCN1c2ccccc2CCc2ccccc21 [Imipramine, reference compound]	2.2 mg/kg	0.94 mg/kg	–	–
